Assay results taken from patent publication US11708366B2, “Heteroaryl substituted spiropiperidinyl derivatives and pharmaceutical uses thereof” (Novartis AG, priority 2020, dated 2023).
Read-outs that look alike come from different tables or passages of the source.

Molecular target: LTC4S (Homo sapiens (Human), UniProt Q16873)
Assay: Human whole blood HTRF assay (LTC4 release after calcium ionophore A23187)
Assay type: cell-based
Settings: calcium ionophore A23187 stimulation, LTC4 by HTRF
Protocol: B. Human Whole Blood HTRF Assay
LTC4 synthase catalyzes the conversion of Leukotriene A4 (LTA4) to Leukotriene C4 (LTC4) in the presence of reduced glutathione (GSH) as a co-substrate. For testing the inhibition of LTC4S, compounds are prepared for either eight-point or sixteen-point dose response studies in 384-well Labcyte low dead volume (LDV) plates. For eight-point dose response studies, compounds are diluted 1:5 starting at 1 μM concentration in 90% DMSO. […] Compounds are studied in duplicates. Ten wells are filled with 90% DMSO which correspond to the stimulated and unstimulated control wells. […] The morning of the assay, whole blood is collected from three human donors. Donors must be non-smokers and must not have taken NSAIDs within the 48 hours prior to blood collection. The amount of blood collected per donor depends on the amount of compounds to be tested and the dose response format in which they are to be studied (about 8 mL of whole blood for either 22 compounds in 8-point dose response format or 11 compounds in 16-point dose response format). […] 50 μL of diluted blood are then dispensed into each assay plate well with pre-dispensed compounds and DMSO for the stimulated and unstimulated controls using a Thermo Scientific™ Multidrop™ Combi reagent dispenser, and incubated at 37° C. for 4 hours. Calcium ionophore A23187 is used to induce a rapid increase in intracellular levels of Ca^2+. The Ca^2+ functions as a universal second messenger in various immune cells, such as T cells, B cells and mast cells, and is used to induce degranulation and release of eicosanoids, including LTC4, by cells contained in the whole blood samples. […] All but the unstimulated control wells are subsequently stimulated by dispensing 1 μL of the 0.5 mg/mL calcium ionophore suspension using the Thermo Scientific™ Multidrop™ Combi reagent dispenser. Plates are incubated for 15 minutes at 37° C. Plates are then centrifuged at 300 g for 10 minutes at room temperature to pellet blood cells and stop the reaction. […] Plates are sealed and stored at −80° C.
In order to measure the amount of LTC4 released by cells in the human blood samples during calcium ionophore stimulation, supernatants are analyzed using the Cisbio LTC4 homogeneous time-resolved FRET (HTRF) kit (Cisbio #64LC4PEH). […] Ten serially diluted standard curve solutions are also dispensed in duplicate into each plate as instructed in the protocol. Blank controls and cryptate control wells are also prepared. Then, 5 μL of anti-LTC4-d2 working solution are dispensed into all the wells, but the cryptate control wells. Subsequently, 5 μL of anti-LTC4-Eu3+ cryptate working solution are dispensed into all the wells. Plates are then covered with a lid and incubated at room temperature for one hour with gentle orbital shaking (˜450 rpm). […] HTRF ratios are calculated for each well by dividing the 665 nm intensity by the 620 nm intensity, and multiplying the resulting ratio by 10,000. LTC4 standard curves are interpolated for each plate and used to convert the HTRF ratio readouts into the amount of LTC4 present in each well (in ng/mL). Parametric curve fitting is used to obtain inhibition curves and IC50 values.

[1] = human whole blood diluted 1:3, 4 h incubation, read-out: human whole blood HTRF IC50
[2] = human whole blood HTRF IC50, human whole blood diluted 1:3, 4 h incubation

Row | Compound | IC50 [1] | IC50 [2]
1 | CCCOc1ccnc(N2CCC3(CCCC(=O)N3c3ccc(F)c(F)c3)CC2)n1 [Example 85, 1-(3,4-difluorophenyl)-9-(4-propoxypyrimidin-2-yl)-1,9-diazaspiro[5.5]undecan-2-one] | 430 nM | 
2 | NC(=O)c1nc(N2CCC3(CCCC(=O)N3c3ccc(F)c(F)c3)CC2)cc(-n2cc(C(F)(F)F)cn2)n1 [Example 68] | 120 nM | 
3 | O=C1CCCC2(CCN(c3cc(-c4ccc(F)cc4)n[nH]c3=O)CC2)N1c1ccc(F)c(F)c1 [Example 11, 1-(3,4-difluorophenyl)-9-(6-(4-fluorophenyl)-3-oxo-2,3-dihydropyridazin-4-yl)-1,9-diazaspiro[5.5]undecane-2-one] | 6 nM | 
4 | N#Cc1nc(N2CCC3(CCCC(=O)N3c3ccc(F)c(F)c3)CC2)cc(-n2cccn2)n1 [Example 49, 4-(1-(3,4-difluorophenyl)-2-oxo-1,9-diazaspiro[5.5]undecan-9-yl)-6-(1H-pyrazol-1-yl)pyrimidine-2-carbonitrile] | 88 nM | 
5 | O=C1CCCC2(CCN(c3cnnc(N4CCC(O)(C(F)(F)F)CC4)c3)CC2)N1c1ccc(F)c(F)c1 [Example 42, 1-(3,4-difluorophenyl)-9-(6-(4-hydroxy-4-(trifluoromethyl)piperidin-1-yl)pyridazin-4-yl)-1,9-diazaspiro[5.5]undecan-2-one] | 410 nM | 
6 | Nc1nc(N2CCC3(CCCC(=O)N3c3ccc(F)c(F)c3)CC2)cc(N2C[C@H]3C[C@@H]2CO3)n1 (racemic) [Example 46, rac-9-(2-amino-6-((1R,4R)-2-oxa-5-azabicyclo[2.2.1]heptan-5-yl)pyrimidin-4-yl)-1-(3,4-difluorophenyl)-1,9-diazaspiro[5.5]undecan-2-one] | 490 nM | 
7 | Nc1nc(N2CCC3(CCCC(=O)N3c3ccc(F)c(F)c3)CC2)c(F)c(N2CCC(O)(C(F)(F)F)CC2)n1 [Example 41, 9-(2-amino-5-fluoro-6-(4-hydroxy-4-(trifluoromethyl)piperidin-1-yl)pyrimidin-4-yl)-1-(3,4-difluorophenyl)-1,9-diazaspiro[5.5]undecan-2-one] | 5 nM | 
8 | C[C@H](Oc1cc(N2CCC3(CCOC(=O)N3c3ccc(F)c(F)c3)CC2)nc(N)n1)C(F)(F)F [Example 113b, (S)-9-(2-amino-6-((1,1,1-trifluoropropan-2-yl)oxy)pyrimidin-4-yl)-1-(3,4-difluorophenyl)-3-oxa-1,9-diazaspiro[5.5]undecan-2-one, or (R)-9-(2-amino-6-((1,1,1-trifluoropropan-2-yl)oxy)pyrimidin-4-yl)-1-(3,4-difluorophenyl)-3-oxa-1,9-diazaspiro[5.5]undecan-2-one] | 36 nM | 
9 | Nc1nc(O[C@@H]2CCCOC2)cc(N2CCC3(CCCC(=O)N3c3ccc(F)c(F)c3)CC2)n1 [Example 100, (R)-9-(2-amino-6-((tetrahydro-2H-pyran-3-yl)oxy)pyrimidin-4-yl)-1-(3,4-difluorophenyl)-1,9-diazaspiro[5.5]undecan-2-one] | 2 nM | 
10 | Nc1nc(N2CCC3(CCCC(=O)N3c3ccc(F)c(F)c3)CC2)cc(-n2cc(C(F)(F)F)cn2)n1 [Example 64, 9-(2-amino-6-(4-(trifluoromethyl)-1H-pyrazol-1-yl)pyrimidin-4-yl)-1-(3,4-difluorophenyl)-1,9-diazaspiro[5.5]undecane-2-one] | 2 nM | 
11 | Nc1nc(N2CCC3(CCCC(=O)N3c3ccc(F)c(F)c3)CC2)cc(C(F)(F)F)n1 [Example 76, 9-(2-amino-6-(trifluoromethyl)pyrimidin-4-yl)-1-(3,4-difluorophenyl)-1,9-diazaspiro[5.5]undecan-2-one] | 57 nM | 
12 | O=C1CCCC2(CCN(c3cc(-n4cc(C(F)(F)F)cn4)ncn3)CC2)N1c1ccc(F)c(F)c1 [Example 47, 1-(3,4-difluorophenyl)-9-(6-(4-(trifluoromethyl)-1H-pyrazol-1-yl)pyrimidin-4-yl)-1,9-diazaspiro[5.5]undecan-2-one] | 7 nM | 
13 | O=C1CCCC2(CCN(c3cc(N4CC5(CCC5)C4)nn(Cc4ccccc4)c3=O)CC2)N1c1ccc(F)c(F)c1 [Example 10, 9-(2-benzyl-3-oxo-6-(2-azaspiro[3.3]heptan-2-yl)-2,3-dihydropyridazin-4-yl)-1-(3,4-difluorophenyl)-1,9-diazaspiro[5.5]undecan-2-one] | 5 nM | 
14 | O=C1CCCC2(CCN(c3cc(C(F)(F)C(F)(F)F)nc(CO)n3)CC2)N1c1ccc(F)c(F)c1 [Example 79, 1-(3,4-difluorophenyl)-9-(2-(hydroxymethyl)-6-(perfluoroethyl)pyrimidin-4-yl)-1,9-diazaspiro[5.5]undecane-2-one] | 56 nM | 
15 | Nc1nc(O[C@H](C2COC2)C(F)(F)F)cc(N2CCC3(CCCC(=O)N3c3ccc(F)c(F)c3)CC2)n1 (single isomer, unassigned) [Example 89b, (R)-9-(2-amino-6-(2,2,2-trifluoro-1-(oxetan-3-yl)ethoxy)pyrimidin-4-yl)-1-(3,4-difluorophenyl)-1,9-diazaspiro[5.5]undecan-2-one or (S)-9-(2-amino-6-(2,2,2-trifluoro-1-(oxetan-3-yl)ethoxy)pyrimidin-4-yl)-1-(3,4-difluorophenyl)-1,9-diazaspiro[5.5]undecan-2-one] | 5 nM | 
16 | Nc1nc(O[C@@H]2COC[C@H]2F)cc(N2CCC3(CCCC(=O)N3c3ccc(F)c(F)c3)CC2)n1 (racemic) [Example 102, rac-9-(2-amino-6-(((3R,4R)-4-fluorotetrahydrofuran-3-yl)oxy)pyrimidin-4-yl)-1-(3,4-difluorophenyl)-1,9-diazaspiro[5.5]undecan-2-one] | 9 nM | 
17 | O=C1CCCC2(CCN(c3cc(-n4cc(C(F)(F)F)cn4)nc(CO)n3)CC2)N1c1ccc(F)c(F)c1 [Example 66, 1-(3,4-difluorophenyl)-9-(2-(hydroxymethyl)-6-(4-(trifluoromethyl)-1H-pyrazol-1-yl)pyrimidin-4-yl)1,9-diazaspiro[5.5]undecane-2-one] | 1 nM | 
18 | Cn1nc(OC2CCOCC2)cc(N2CCC3(CCCC(=O)N3c3ccc(F)c(F)c3)CC2)c1=O [Example 17, 1-(3,4-difluorophenyl)-9-(2-methyl-3-oxo-6-((tetrahydro-2H-pyran-4-yl)oxy)-2,3-dihydropyridazin-4-yl)-1,9-diazaspiro[5.5]undecan-2-one] |  | 9 nM
19 | C[C@@H](Oc1cc(N2CCC3(CCCC(=O)N3c3ccc(F)c(F)c3)CC2)nc(CO)n1)C(F)(F)F (single isomer, unassigned) [Example 110b, (R)-1-(3,4-difluorophenyl)-9-(2-(hydroxymethyl)-6-((1,1,1-trifluoropropan-2-yl)oxy)pyrimidin-4-yl)-1,9-diazaspiro[5.5]undecan-2-one or (S)-1-(3,4-difluorophenyl)-9-(2-(hydroxymethyl)-6-((1,1,1-trifluoropropan-2-yl)oxy)pyrimidin-4-yl)-1,9-diazaspiro[5.5]undecan-2-one] | 5 nM | 
20 | O=C1CCCC2(CCN(c3cc(-n4cc(Cl)cn4)ncn3)CC2)N1c1ccc(F)c(F)c1 [Example 55, 9-(6-(4-chloro-1H-pyrazol-1-yl)pyrimidin-4-yl)-1-(3,4-difluorophenyl)-1,9-diazaspiro[5.5]undecan-2-one] | 6 nM | 
21 | Cn1nc(-n2cc(C(F)(F)F)cn2)cc(N2CCC3(CCCC(=O)N3c3ccc(F)c(F)c3)CC2)c1=O [Example 14, 1-(3,4-difluorophenyl)-9-(2-methyl-3-oxo-6-(4-(trifluoromethyl)-1H-pyrazol-1-yl)-2,3-dihydropyridazin-4-yl)-1,9-diazaspiro[5.5]undecane-2-one] |  | 1 nM
22 | (S)-1-(3,4-difluorophenyl)-9-(2-(hydroxymethyl)-6-((1,1,1-trifluoropropan-2-yl)oxy)pyrimidin-4-yl)-1,9-diazaspiro[5.5]undecan-2-one or (R)-1-(3,4-difluorophenyl)-9-(2-(hydroxymethyl)-6-((1,1,1-trifluoropropan-2-yl)oxy)pyrimidin-4-yl)-1,9-diazaspiro[5.5]undecan-2-one [Example 110a] | 3 nM | 
23 | CC(C)(O)c1nc(N2CCC3(CCCC(=O)N3c3ccc(F)c(F)c3)CC2)cc(C(F)(F)F)n1 [Example 80, 1-(3,4-difluorophenyl)-9-(2-(2-hydroxypropan-2-yl)-6-(trifluoromethyl)pyrimidin-4-yl)-1,9-diazaspiro[5.5]undecan-2-one] | 24 nM | 
